Measurements reported in PubChem BioAssay AID2202555 (NIEHS Division of Translational Toxicology (DTT)).
Records with an inconclusive call do not appear. Calls of active or inactive are those of the source. The rule behind the calls is not given here.

Test system: rat and mouse 2-year carcinogenicity bioassay, tumor evidence
Assay: Consolidated carcinogenicity assay summary data
Source text: Cancer Evaluation Criteria
The National Toxicology Program describes the results of individual experiments on a chemical agent and notes the strength of the evidence for conclusions regarding each study. […] Other organizations, such as the International Agency for Research on Cancer, assign a strength of evidence for conclusions based on an examination of all available evidence, including animal studies such as those conducted by the NTP, epidemiologic studies, and estimates of exposure. Thus, the actual determination of risk to humans from chemicals found to be carcinogenic in laboratory animals requires a wider analysis that extends beyond the purview of these studies.
Five categories of evidence of carcinogenic activity are used in the Technical Report series to summarize the strength of evidence observed in each experiment: two categories for positive results (clear evidence and some evidence); one category for uncertain findings (equivocal evidence); one category for no observable effects (no evidence); and one category for experiments that cannot be evaluated because of major flaws (inadequate study). These categories of interpretative conclusions were first adopted in June 1983 and then revised on March 1986 for use in the Technical Report series to incorporate more specifically the concept of actual weight of evidence of carcinogenic activity. For each separate experiment (male rats, female rats, male mice, female mice), one of the following five categories is selected to describe the findings. These categories refer to the strength of the experimental evidence and not to potency or mechanism.
For studies showing multiple chemical-related neoplastic effects that if considered individually would be assigned to different levels of evidence categories, the following convention has been adopted to convey completely the study results. In a study with clear evidence of carcinogenic activity at some tissue sites, other responses that alone might be deemed some evidence are indicated as "were also related" to chemical exposure. In studies with clear or some evidence of carcinogenic activity, other responses that alone might be termed equivocal evidence are indicated as "may have been" related to chemical exposure.
When a conclusion statement for a particular experiment is selected, consideration must be given to key factors that would extend the actual boundary of an individual category of evidence. Such consideration should allow for incorporation of scientific experience and current understanding of long-term carcinogenesis studies in laboratory animals, especially for those evaluations that may be on the borderline between two adjacent levels. These considerations should include:
- adequacy of the experimental design and conduct;
- occurrence of common versus uncommon neoplasia;
- progression (or lack thereof) from benign to malignant neoplasia as well as from preneoplastic to neoplastic lesions;
- some benign neoplasms have the capacity to regress but others (of the same morphologic type) progress. At present, it is impossible to identify the difference. Therefore, where progression is known to be a possibility, the most prudent course is to assume that benign neoplasms of those types have the potential to become malignant;
- combining benign and malignant tumor incidences known or thought to represent stages of progression in the same organ or tissue;
- latency in tumor induction;
- multiplicity in site -specific neoplasia;
- supporting information from proliferative lesions (hyperplasia) in the same site of neoplasia or in other experiments (same lesion in another sex or species);
- presence or absence of dose relationships;
- statistical significance of the observed tumor increase;
- concurrent control tumor incidence as well as the historical control rate and variability for a specific neoplasm;
- survival-adjusted analyses and false positive or false negative concerns;
- structure-activity correlations; and
[…]

[1] = Route (rodents): Interperitoneal
[2] = Route (rodents): Gavage, Second Route: Topical

SMILES | carcinogen call (Route (rodents): Dosed feed) | carcinogen call (Route (rodents): Gavage) | further results
O=c1c(O)c(-c2ccc(O)c(O)c2)oc2cc(O)cc(O)c12 | active; some evidence | – | –
N#CC(Br)Br | – | – | carcinogen call (Route (rodents): Dosed water): active; clear evidence
COC(=O)C(c1ccccc1)C1CCCCN1 (configuration not stated) | active; no evidence | – | –
ClC(Cl)C(Cl)Cl | – | active; equivocal evidence | –
CC(C)CCC[C@@H](C)[C@H]1CC[C@H]2[C@@H]3CC=C4C[C@@H](OC(=O)Cc5ccc(N(CCCl)CCCl)cc5)CC[C@]4(C)[C@H]3CC[C@]12C | – | active; no evidence | –
CC(C)CON=O | – | – | carcinogen call (Route (rodents): Inhalation): active; clear evidence
OCC(Br)CBr (configuration not stated) | – | – | carcinogen call (Route (rodents): Topical): active; clear evidence
Cc1ccc([N+](=O)[O-])cc1 | active; equivocal evidence | – | –
ClCC(Br)CBr (configuration not stated) | – | – | carcinogen call (Route (rodents): Inhalation, Second Route: Gavage): active; clear evidence
C1COCCO1 | – | – | carcinogen call (Route (rodents): Dosed water): active; clear evidence
CC(C)=C1CC[C@@H](C)CC1=O | – | active; no evidence | –
COc1c(Cl)c(Cl)c(Cl)c(Cl)c1Cl | – | active; some evidence | –
C=CC#N | – | active | –
O=Cc1ccco1 | – | active; some evidence | –
CC1CO1 (configuration not stated) | – | – | carcinogen call (Route (rodents): Inhalation): active; some evidence
O=c1ccc2ccccc2o1 | – | active; some evidence | –
CN(C)NC(=O)CCC(=O)O | active; no evidence | – | –
Nc1ccc(Cl)c(N)c1 | active; clear evidence | – | –
Oc1cccc(O)c1O | – | – | carcinogen call (Route (rodents): Topical): active; no evidence
OCC1CO1 (configuration not stated) | – | active; clear evidence | –
O=P1(NCCCl)OCCCN1CCCl (configuration not stated) | – | – | carcinogen call [1]: active; no evidence
O=[N+]([O-])c1ccc(Nc2ccc(Nc3ccccc3)c(S(=O)(=O)O)c2)c([N+](=O)[O-])c1 | – | active; no evidence | –

SMILES | carcinogen call (Route (rodents): Dosed feed) | carcinogen call (Route (rodents): Gavage) | further results
C/C=C(/C)C(=O)O[C@H]1CCN2CC=C(COC(=O)[C@@](O)([C@@H](C)OC)C(C)(C)O)[C@H]12 | active; clear evidence | – | –
BrC(Br)Br | – | active; some evidence | –
C1CO1 | – | – | carcinogen call (Route (rodents): Inhalation): active
COP(=O)(OC)OC=C(Cl)Cl | – | – | carcinogen call (Route (rodents): Gavage, Second Route: Dosed Feed): active; some evidence
COc1cc(-c2ccc(N=Nc3c(S(=O)(=O)O)cc4cc(S(=O)(=O)O)cc(N)c4c3O)c(OC)c2)ccc1N=Nc1c(S(=O)(=O)O)cc2cc(S(=O)(=O)O)cc(N)c2c1O | – | – | carcinogen call (Route (rodents): Dosed water): active; clear evidence
O=C([O-])c1cc(N=Nc2ccc(-c3ccc(N=Nc4c(O)ccc(N=Nc5cc(S(=O)(=O)[O-])ccc5[O-])c4[O-])cc3)cc2)ccc1O.[Cu+2].[Na+].[Na+] | active; no evidence | – | –
Nc1cccc2c(N)cccc12 | active; no evidence | – | –
Nc1nc(=S)c2ncn([C@H]3C[C@H](O)[C@@H](CO)O3)c2[nH]1 | – | – | carcinogen call [1]: active; equivocal evidence
NS(=O)(=O)c1cc(C(=O)O)c(NCc2ccco2)cc1Cl | active; equivocal evidence | – | –
CCCCCCCCCCCC(=O)N(CCO)CCO | – | – | carcinogen call (Route (rodents): Topical): active; no evidence
Nc1nc(N)c2nc(-c3ccccc3)c(N)nc2n1 | active; equivocal evidence | – | –
CN(C)c1ccc(Cc2ccc(N(C)C)cc2)cc1 | active; clear evidence | – | –
Clc1cc2c(cc1Cl)Oc1cc(Cl)c(Cl)cc1O2 | – | – | carcinogen call [2]: active; clear evidence
C=CCN=C=S | – | active; clear evidence | –
Cc1cccc(C)c1N | active; clear evidence | – | –
CN(C)c1ccc2nc3ccc(=[N+](C)C)cc-3sc2c1 | – | active; some evidence | –
O=C1Nc2ccc(Cl)cc2C(c2ccccc2)=NC1O (configuration not stated) | active; equivocal evidence | – | –
Cc1ccc2c(c1[N+](=O)[O-])C(=O)c1ccccc1C2=O | active; clear evidence | – | –
Oc1ccc2ccccc2c1N=Nc1ccccc1 | active; clear evidence | – | –
Oc1c(Cl)c(Cl)c(Cl)c(Cl)c1Cl | active; some evidence | – | –
COc1cc2c(c3c1c(=O)c1ccccc1n3C)C=CC(C)(C)O2 | – | – | carcinogen call [1]: active; clear evidence
Nc1ccc(Cl)cc1 | – | active; clear evidence | –

SMILES | carcinogen call (Route (rodents): Dosed feed) | carcinogen call (Route (rodents): Gavage) | further results
Nc1cc(S(=O)(=O)O)cc2cc(S(=O)(=O)O)c(N=Nc3ccc(-c4ccc(N=Nc5c(S(=O)(=O)O)cc6cc(S(=O)(=O)O)cc(N)c6c5O)cc4)cc3)c(O)c12 | active; clear evidence | – | –
CC(COc1ccccc1)N(CCCl)Cc1ccccc1 (configuration not stated) | – | – | carcinogen call [1]: active; clear evidence
ClC(Cl)=C(c1ccc(Cl)cc1)c1ccc(Cl)cc1 | active; no evidence | – | –
Clc1cc2c(c(Cl)c1Cl)Oc1cc(Cl)c(Cl)c(Cl)c1O2 | – | – | carcinogen call [2]: active; equivocal evidence
Clc1ccc(N=Nc2ccc(Cl)c(Cl)c2)cc1Cl | – | active; clear evidence | –
CC=CC=CC=O | – | active; clear evidence | –
NC(=O)NN=Cc1ccc([N+](=O)[O-])o1 | active; equivocal evidence | – | –
CCC1(c2ccccc2)C(=O)NCNC1=O | active; equivocal evidence | – | –
CCCCCCCCS(=O)C(C)Cc1ccc2c(c1)OCO2 (configuration not stated) | active; no evidence | – | –
c1ccccc1 | – | active; clear evidence | –
Clc1cc2oc3c(Cl)c(Cl)c(Cl)cc3c2cc1Cl | – | active | –
CCCCOC(=O)c1ccccc1C(=O)OCc1ccccc1 | active; some evidence | – | –
FC(F)=C(F)F | – | – | carcinogen call (Route (rodents): Inhalation): active; clear evidence
Nc1ncn([C@@H]2O[C@H](CO)[C@@H](O)[C@H]2O)c(=O)n1 | – | – | carcinogen call [1]: active; inadequate study
CC(C)(c1cc(Br)c(O)c(Br)c1)c1cc(Br)c(O)c(Br)c1 | – | active; equivocal evidence | –
[O-][Cl+2]([O-])O | – | – | carcinogen call (Route (rodents): Dosed water): active; some evidence
Cc1ccc(S(=O)(=O)Oc2ccc(N=Nc3ccc(-c4ccc(N=Nc5c(O)ccc6cc(S(=O)(=O)O)cc(S(=O)(=O)O)c56)c(C)c4)cc3C)cc2)cc1 | – | – | carcinogen call (Route (rodents): Dosed water): active; clear evidence
O=Nc1ccc(NO)cc1 | active; no evidence | – | –
C=CC(=O)NCO | – | active; no evidence | –
Nc1cc(S(=O)(=O)[O-])cc2cc(S(=O)(=O)[O-])c(N=Nc3ccc(-c4ccc(N=Nc5c(S(=O)(=O)[O-])cc6cc(S(=O)(=O)[O-])cc(N)c6c5[O-])c([O-])c4)cc3[O-])c([O-])c12.[Cu+2].[Cu+2].[Na+].[Na+].[Na+].[Na+] | active; some evidence | – | –
Nc1c(Br)cc(Br)c2c1C(=O)c1ccccc1C2=O | active; clear evidence | – | –
Cc1ccc2c(c1N)C(=O)c1ccccc1C2=O | active; clear evidence | – | –

SMILES | carcinogen call (Route (rodents): Dosed feed) | carcinogen call (Route (rodents): Gavage) | further results
O=C(O)C(Br)Br | – | – | carcinogen call (Route (rodents): Dosed water): active; some evidence
Nc1ccc(S(=O)(=O)c2ccc(N)cc2)cc1 | active; clear evidence | – | –
c1ccc2occc2c1 | – | active; no evidence | –
CC(CCl)OC(C)CCl (configuration not stated) | – | active; no evidence | –
S=c1[nH]c2ccccc2s1 | – | active; some evidence | –
FC(F)(F)c1ccc(Cl)cc1 | – | – | carcinogen call (Route (rodents): Inhalation): active; some evidence
ClC1(Cl)C2(Cl)C3(Cl)C4(Cl)C(Cl)(Cl)C5(Cl)C3(Cl)C1(Cl)C5(Cl)C24Cl (configuration not stated) | active; clear evidence | – | –
CCC1CO1 (configuration not stated) | – | – | carcinogen call (Route (rodents): Inhalation): active; clear evidence
[O]=[Mo](=[O])=[O] | – | – | carcinogen call (Route (rodents): Inhalation): active; equivocal evidence
COc1ccc(C(=O)/C(Br)=C\C(=O)O)cc1 | – | – | carcinogen call [1]: active; clear evidence
CN(C)c1ccccc1 | – | active; some evidence | –
N#Cc1c(Cl)c(Cl)c(Cl)c(C#N)c1Cl | active; clear evidence | – | –
CC=Cc1ccc(O)c(OC)c1 | – | active; equivocal evidence | –
COP(=O)(OC)O/C(=C\Cl)c1cc(Cl)c(Cl)cc1Cl | active; no evidence | – | –
ClCC(Cl)(Cl)Cl | – | active; equivocal evidence | –
C=CCOCC1CO1 (configuration not stated) | – | – | carcinogen call (Route (rodents): Inhalation): active; equivocal evidence
C=CCc1ccc(OC)c(OC)c1 | – | active; clear evidence | –
Clc1ccc(-c2cc(Cl)c(Cl)cc2Cl)cc1Cl | – | active | –
Nc1ccccc1C(=O)OCC=Cc1ccccc1 | active; clear evidence | – | –
Cc1ccc(N(C)C)cc1 | – | active; clear evidence | –
C=CC(=C)Cl | – | – | carcinogen call (Route (rodents): Inhalation): active; clear evidence
